According to the supplement of paper PMC10307832:

Tests used:
Experiment in all cases: relative viability (nuclei count vs DMSO), 5 days (fraction); higher = more cells survive
NCI-H3122 = test system: NCI-H3122
Summary of the method: (§1)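 Five library-drug doses in √10 steps were combined with a fixed anchor-drug dose, or a single drug was given alone, by pin tool to lung cancer cell lines in 1536-well plates the day after seeding. Nuclei were stained and counted after 5 days. Relative viability is the nuclei count in treated wells over that in vehicle wells, taken as the median of duplicate plates.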

EPLC-272H = test system: EPLC-272H
Summary of the method: as §1

LCLC-103H = test system: LCLC-103H
Summary of the method: as §1

NCI-H2126 = test system: NCI-H2126
Summary of the method: as §1

SW 1573 = test system: SW 1573
Summary of the method: as §1

LK-2 = test system: LK-2
Summary of the method: as §1

NCI-H322M = test system: NCI-H322M
Summary of the method: as §1

SK-LU-1 = test system: SK-LU-1
Summary of the method: as §1

NCI-H1975 = test system: NCI-H1975
Summary of the method: as §1

NCI-H2085 = test system: NCI-H2085
Summary of the method: as §1

NCI-H1666 = test system: NCI-H1666
Summary of the method: as §1

ChaGo-K-1 = test system: ChaGo-K-1
Summary of the method: as §1

NCI-H23 = test system: NCI-H23
Summary of the method: as §1

LOU-NH91 = test system: LOU-NH91
Summary of the method: as §1

NCI-H1563 = test system: NCI-H1563
Summary of the method: as §1

LU99A = test system: LU99A
Summary of the method: as §1

HCC-827 = test system: HCC-827
Summary of the method: as §1

HCC-78 = test system: HCC-78
Summary of the method: as §1

EMC-BAC-2 = test system: EMC-BAC-2
Summary of the method: as §1

NCI-H2405 = test system: NCI-H2405
Summary of the method: as §1

LXF-289 = test system: LXF-289
Summary of the method: as §1

RERF-LC-KJ = test system: RERF-LC-KJ
Summary of the method: as §1

O=C(O)c1ccc(-c2c[nH]c3ncc(-c4ccccc4)cc23)cc1C1CCCC1 + C[C@@H](Oc1cc(-c2cnn(C3CCNCC3)c2)cnc1N)c1c(Cl)ccc(F)c1Cl [Crizotinib] (partner 1 µM)
relative viability (NCI-H3122; first compound 0.04 µM): 0.261
relative viability (NCI-H3122; first compound 0.1265 µM): 0.245
relative viability (NCI-H3122; first compound 0.4 µM): 0.272
relative viability (NCI-H3122; first compound 1.265 µM): 0.319
relative viability (EPLC-272H; first compound 0.04 µM): 0.974
relative viability (EPLC-272H; first compound 0.1265 µM): 1.01
relative viability (EPLC-272H; first compound 0.4 µM): 0.989
relative viability (EPLC-272H; first compound 1.265 µM): 0.655
relative viability (LCLC-103H; first compound 0.04 µM): 0.997
relative viability (LCLC-103H; first compound 0.1265 µM): 1.05
relative viability (LCLC-103H; first compound 0.4 µM): 1.03
relative viability (LCLC-103H; first compound 1.265 µM): 1.04
relative viability (NCI-H2126; first compound 0.04 µM): 1.04
relative viability (NCI-H2126; first compound 0.1265 µM): 1.03
relative viability (NCI-H2126; first compound 0.4 µM): 0.995
relative viability (NCI-H2126; first compound 1.265 µM): 0.824
relative viability (SW 1573; first compound 0.04 µM): 0.769
relative viability (SW 1573; first compound 0.1265 µM): 0.892
relative viability (SW 1573; first compound 0.4 µM): 0.862
relative viability (SW 1573; first compound 1.265 µM): 0.925
relative viability (LK-2; first compound 0.04 µM): 0.31
relative viability (LK-2; first compound 0.1265 µM): 0.202
relative viability (LK-2; first compound 0.4 µM): 0.291
relative viability (LK-2; first compound 1.265 µM): 0.198
relative viability (NCI-H322M; first compound 0.04 µM): 0.943
relative viability (NCI-H322M; first compound 0.1265 µM): 0.918
relative viability (NCI-H322M; first compound 0.4 µM): 1.01
relative viability (NCI-H322M; first compound 1.265 µM): 0.839
relative viability (SK-LU-1; first compound 0.04 µM): 0.927
relative viability (SK-LU-1; first compound 0.1265 µM): 0.901
relative viability (SK-LU-1; first compound 0.4 µM): 0.719
relative viability (SK-LU-1; first compound 1.265 µM): 0.682
relative viability (NCI-H1975; first compound 0.04 µM): 0.999
relative viability (NCI-H1975; first compound 0.1265 µM): 1.04
relative viability (NCI-H1975; first compound 0.4 µM): 0.923
relative viability (NCI-H1975; first compound 1.265 µM): 0.767
relative viability (NCI-H2085; first compound 0.04 µM): 0.832
relative viability (NCI-H2085; first compound 0.1265 µM): 0.804
relative viability (NCI-H2085; first compound 0.4 µM): 0.878
relative viability (NCI-H2085; first compound 1.265 µM): 0.696
relative viability (NCI-H1666; first compound 0.04 µM): 1.03
relative viability (NCI-H1666; first compound 0.1265 µM): 0.991
relative viability (NCI-H1666; first compound 0.4 µM): 0.812
relative viability (NCI-H1666; first compound 1.265 µM): 0.365
relative viability (ChaGo-K-1; first compound 0.04 µM): 1.11
relative viability (ChaGo-K-1; first compound 0.1265 µM): 1.1
relative viability (ChaGo-K-1; first compound 0.4 µM): 1.04
relative viability (ChaGo-K-1; first compound 1.265 µM): 0.846
relative viability (NCI-H23; first compound 0.04 µM): 0.689
relative viability (NCI-H23; first compound 0.1265 µM): 0.598
relative viability (NCI-H23; first compound 0.4 µM): 0.482
relative viability (NCI-H23; first compound 1.265 µM): 0.484
relative viability (LOU-NH91; first compound 0.04 µM): 0.725
relative viability (LOU-NH91; first compound 0.1265 µM): 0.771
relative viability (LOU-NH91; first compound 0.4 µM): 0.702
relative viability (LOU-NH91; first compound 1.265 µM): 0.782
relative viability (NCI-H1563; first compound 0.04 µM): 0.787
relative viability (NCI-H1563; first compound 0.1265 µM): 0.91
relative viability (NCI-H1563; first compound 0.4 µM): 0.851
relative viability (NCI-H1563; first compound 1.265 µM): 0.875
relative viability (LU99A; first compound 0.04 µM): 0.539
relative viability (LU99A; first compound 0.1265 µM): 0.678
relative viability (LU99A; first compound 0.4 µM): 0.503
relative viability (LU99A; first compound 1.265 µM): 0.486
relative viability (HCC-827; first compound 0.04 µM): 0.88
relative viability (HCC-827; first compound 0.1265 µM): 0.95
relative viability (HCC-827; first compound 0.4 µM): 0.897
relative viability (HCC-827; first compound 1.265 µM): 0.724
relative viability (HCC-78; first compound 0.04 µM): 0.338
relative viability (HCC-78; first compound 0.1265 µM): 0.381
relative viability (HCC-78; first compound 0.4 µM): 0.328
relative viability (HCC-78; first compound 1.265 µM): 0.293
relative viability (EMC-BAC-2; first compound 0.04 µM): 0.76
relative viability (EMC-BAC-2; first compound 0.1265 µM): 0.806
relative viability (EMC-BAC-2; first compound 0.4 µM): 0.671
relative viability (EMC-BAC-2; first compound 1.265 µM): 0.672
relative viability (NCI-H2405; first compound 0.04 µM): 0.862
relative viability (NCI-H2405; first compound 0.1265 µM): 0.94
relative viability (NCI-H2405; first compound 0.4 µM): 0.841
relative viability (NCI-H2405; first compound 1.265 µM): 0.715
relative viability (LXF-289; first compound 0.04 µM): 0.741
relative viability (LXF-289; first compound 0.1265 µM): 0.772
relative viability (LXF-289; first compound 0.4 µM): 0.594
relative viability (LXF-289; first compound 1.265 µM): 0.285
relative viability (RERF-LC-KJ; first compound 0.04 µM): 0.795
relative viability (RERF-LC-KJ; first compound 0.1265 µM): 0.851
relative viability (RERF-LC-KJ; first compound 0.4 µM): 0.823
relative viability (RERF-LC-KJ; first compound 1.265 µM): 0.766
